Reference: patent US20220071932A1, “Compositions and Methods Against Stress-Induced Affective Disorders and Their Associated Symptoms” (The Trustees of Columbia University in the City of New York, priority 2019, published 2022)

Tested on: 129S6/SvEv mice
Assay: Contextual fear conditioning (CFC), 3-shock; freezing
Format: in vivo
Conditions: for p, Fisher's LSD Saline vs. drug, CFC Re-exposure Freezing Min 1 (%) / p, Fisher's LSD Saline vs. drug, CFC Re-exposure Freezing Min 2 (%) / p, Fisher's LSD Saline vs. drug, CFC Re-exposure Freezing Min 3 (%) / p, Fisher's LSD Saline vs. drug, CFC Re-exposure Freezing Min 4 (%) / p, Fisher's LSD Saline vs. drug, CFC Re-exposure Freezing Min 5 (%) / p, Fisher's LSD Saline vs. drug, CFC Re-exposure Freezing (%): drug 1 week before stress; for p, Fisher's PLSD Saline vs. drug, CFC Re-exposure Freezing Min 1 (%) / p, Fisher's PLSD Saline vs. drug, CFC Re-exposure Freezing Min 2 (%) / p, Fisher's PLSD Saline vs. drug, CFC Re-exposure Freezing Min 3 (%) / p, Fisher's PLSD Saline vs. drug, CFC Re-exposure Freezing Min 4 (%) / p, Fisher's PLSD Saline vs. drug, CFC Re-exposure Freezing Min 5 (%) / p, Fisher's PLSD Saline vs. drug, CFC Re-exposure Freezing (%): drug 5 minutes after stress, FIG. 2C
Procedure: A 3-shock CFC paradigm was administered as previously described (45, 46). CFC was conducted in chambers obtained from Med Associates (St. Albans, Vt.), with internal dimensions of approximately 20 cm wide×16 cm deep×20.5 cm high. The chambers had metal walls on each side, clear plastic front and back walls and ceilings, and stainless-steel bars on the floor. A house light (CM1820 bulb, 28v, 100 mA) mounted directly above the chamber provided illumination. Each chamber was located inside a larger, insulated, plastic cabinet that provided protection from outside light and noise. Each cabinet contained a ventilation fan that was operated during the sessions. A paper towel dabbed with lemon solution was placed underneath the chamber floor. Mice were held outside the experimental room in their home cages prior to testing and transported to the conditioning apparatus individually in standard mouse cages Chambers were cleaned with 70% EtOH between each set of mice. Mice were placed into the conditioning chamber and received shocks at 180 s, 240 s, and 300 s (2 s duration, 0.75 mA). Fifteen seconds after the last shock, mice were removed from the chamber. Overall, the training session lasted 317 s. […] All sessions were scored for freezing using FreezeFrame4.

[1] = 5 min prior to CFC, (R,S)-ketamine 30 mg/kg, FENM 20 mg/kg, vs saline
[2] = (R,S)-ketamine (30 mg/kg) vs. FENM (20 mg/kg), FIG. 8D
[3] = (R,S)-ketamine (30 mg/kg) vs. FENM (20 mg/kg), FIG. 8F

`NC12CC3CC(C1)CC(CCF)(C3)C2` [FENM, 1-amino-3-fluoroethyl-adamantane] was tested, and the “p, Fisher's LSD Saline vs. drug, CFC Re-exposure Freezing Min 1 (%)” value (10 mg/kg, FIG. 1C) was 0.4040, the “p, Fisher's LSD Saline vs. drug, CFC Re-exposure Freezing Min 2 (%)” value (10 mg/kg, FIG. 1C) was 0.0961 and the “p, Fisher's LSD Saline vs. drug, CFC Re-exposure Freezing Min 3 (%)” value (10 mg/kg, FIG. 1C) was 0.5544. The “p, Fisher's LSD Saline vs. drug, CFC Re-exposure Freezing Min 4 (%)” value (10 mg/kg, FIG. 1C) was 0.0419, the “p, Fisher's LSD Saline vs. drug, CFC Re-exposure Freezing Min 5 (%)” value (10 mg/kg, FIG. 1C) was 0.3855 and the “p, Fisher's LSD Saline vs. drug, CFC Re-exposure Freezing (%)” value (10 mg/kg, after ANOVA, FIG. 1D) was 0.1313. For the same compound, the “p, Fisher's LSD Saline vs. drug, CFC Re-exposure Freezing (%)” value (10 mg/kg, after RMANOVA, FIG. 1C) was 0.1313, the “p, Fisher's PLSD Saline vs. drug, CFC Re-exposure Freezing Min 1 (%)” value (10 mg/kg) was 0.1019 and the “p, Fisher's PLSD Saline vs. drug, CFC Re-exposure Freezing Min 2 (%)” value (10 mg/kg) was 0.0359. For the same compound, the “p, Fisher's PLSD Saline vs. drug, CFC Re-exposure Freezing Min 3 (%)” value (10 mg/kg) was 0.0300, the “p, Fisher's PLSD Saline vs. drug, CFC Re-exposure Freezing Min 4 (%)” value (10 mg/kg) was 0.1916 and the “p, Fisher's PLSD Saline vs. drug, CFC Re-exposure Freezing Min 5 (%)” value (10 mg/kg) was 0.6909. The “p, Fisher's PLSD Saline vs. drug, CFC Re-exposure Freezing (%)” value (10 mg/kg, after RMANOVA) was 0.0570, the “p, Fisher's LSD Saline vs. drug, CFC Re-exposure Freezing Min 1 (%)” value (20 mg/kg, FIG. 1C) was 0.2929 and the “p, Fisher's LSD Saline vs. drug, CFC Re-exposure Freezing Min 2 (%)” value (20 mg/kg, FIG. 1C) was 0.0225. For the same compound, the “p, Fisher's LSD Saline vs. drug, CFC Re-exposure Freezing Min 3 (%)” value (20 mg/kg, FIG. 1C) was 0.0834, the “p, Fisher's LSD Saline vs. drug, CFC Re-exposure Freezing Min 4 (%)” value (20 mg/kg, FIG. 1C) was 0.0743 and the “p, Fisher's LSD Saline vs. drug, CFC Re-exposure Freezing Min 5 (%)” value (20 mg/kg, FIG. 1C) was 0.0027. The “p, Fisher's LSD Saline vs. drug, CFC Re-exposure Freezing (%)” value (20 mg/kg, after ANOVA, FIG. 1D) was 0.015, the “p, Fisher's LSD Saline vs. drug, CFC Re-exposure Freezing (%)” value (20 mg/kg, after RMANOVA, FIG. 1C) was 0.0150 and the “p, Fisher's LSD Saline vs. drug, CFC Re-exposure Freezing Min 1 (%)” value (30 mg/kg, FIG. 1C) was 0.0328. For the same compound, the “p, Fisher's LSD Saline vs. drug, CFC Re-exposure Freezing Min 2 (%)” value (30 mg/kg, FIG. 1C) was 0.0080, the “p, Fisher's LSD Saline vs. drug, CFC Re-exposure Freezing Min 3 (%)” value (30 mg/kg, FIG. 1C) was 0.0038 and the “p, Fisher's LSD Saline vs. drug, CFC Re-exposure Freezing Min 4 (%)” value (30 mg/kg, FIG. 1C) was 0.0005. For the same compound, the “p, Fisher's LSD Saline vs. drug, CFC Re-exposure Freezing Min 5 (%)” value (30 mg/kg, FIG. 1C) was 0.0807, the “p, Fisher's LSD Saline vs. drug, CFC Re-exposure Freezing (%)” value (30 mg/kg, after ANOVA, FIG. 1D) was 0.0018 and the “p, Fisher's LSD Saline vs. drug, CFC Re-exposure Freezing (%)” value (30 mg/kg, after RMANOVA, FIG. 1C) was 0.0018. The “p, Fisher's PLSD Saline vs. drug, CFC Re-exposure Freezing Min 1 (%)” value (30 mg/kg) was 0.8647, the “p, Fisher's PLSD Saline vs. drug, CFC Re-exposure Freezing Min 2 (%)” value (30 mg/kg) was 0.4119 and the “p, Fisher's PLSD Saline vs. drug, CFC Re-exposure Freezing Min 3 (%)” value (30 mg/kg) was 0.3540. The “p, Fisher's PLSD Saline vs. drug, CFC Re-exposure Freezing Min 4 (%)” value (30 mg/kg) was 0.0503, the “p, Fisher's PLSD Saline vs. drug, CFC Re-exposure Freezing Min 5 (%)” value (30 mg/kg) was 0.3078 and the “p, Fisher's PLSD Saline vs. drug, CFC Re-exposure Freezing (%)” value (30 mg/kg, after RMANOVA) was 0.2420. The “fear expression during CFC re-exposure” value (1 week prior to CFC, (R,S)-ketamine 30 mg/kg, FENM 20 and 30 mg/kg, vs saline) was “decreased fear expression”, the “fear expression during re-exposure 2” value (5 min after context re-exposure 1 (24 h before re-exposure 2), (R,S)-ketamine 30 mg/kg, FENM 20 mg/kg, vs saline) was “significantly decreased fear expression” and the “fear expression during CFC re-exposure 1” value [1] was “but not FENM significantly decreased”. For the same compound, the “fear expression during CFC re-exposure 2” value [1] was “significantly increased fear expression”, the “freezing during CFC training” value [1] was “but not FENM, increased freezing” and the “CFC Training, Average Freezing, p (Fisher's LSD)” value ((R,S)-ketamine (30 mg/kg) vs. FENM (20 mg/kg), FIG. 8C) was 0.0029. For the same compound, the “CFC Re-exposure 1, Freezing Min 1 (%), p (Fisher's LSD)” value [2] was under 0.0001, the “CFC Re-exposure 1, Freezing Min 2 (%), p (Fisher's LSD)” value [2] was under 0.0001 and the “CFC Re-exposure 1, Freezing Min 3 (%), p (Fisher's LSD)” value [2] was under 0.0001. For the same compound, the “CFC Re-exposure 1, Freezing Min 4 (%), p (Fisher's LSD)” value [2] was under 0.0001, the “CFC Re-exposure 1, Freezing Min 5 (%), p (Fisher's LSD)” value [2] was under 0.0001 and the “CFC Re-exposure 2, Freezing Min 1 (%), p (Fisher's LSD)” value [3] was 0.1684. For the same compound, the “CFC Re-exposure 2, Freezing Min 2 (%), p (Fisher's LSD)” value [3] was under 0.0001.
